Publication PMC8791944, “GLUT3 inhibitor discovery through in silico ligand screening and in vivo validation in eukaryotic expression systems” (Scientific Reports, 2022)
“And” between values parts separate entries of the source, which are not always exact repeats. Equal entries are not always repeated. “Also recorded” adds a separate entry of the source.

Biological target: T1, GLUT4 (Homo sapiens, UniProt P14672)
T1 construct: expressed in transfected cells; host or cells: Saccharomyces cerevisiae hxt0 strain SDY.022 (EBY.S7 Δerg4)
T1 sequence (P14672 1-509): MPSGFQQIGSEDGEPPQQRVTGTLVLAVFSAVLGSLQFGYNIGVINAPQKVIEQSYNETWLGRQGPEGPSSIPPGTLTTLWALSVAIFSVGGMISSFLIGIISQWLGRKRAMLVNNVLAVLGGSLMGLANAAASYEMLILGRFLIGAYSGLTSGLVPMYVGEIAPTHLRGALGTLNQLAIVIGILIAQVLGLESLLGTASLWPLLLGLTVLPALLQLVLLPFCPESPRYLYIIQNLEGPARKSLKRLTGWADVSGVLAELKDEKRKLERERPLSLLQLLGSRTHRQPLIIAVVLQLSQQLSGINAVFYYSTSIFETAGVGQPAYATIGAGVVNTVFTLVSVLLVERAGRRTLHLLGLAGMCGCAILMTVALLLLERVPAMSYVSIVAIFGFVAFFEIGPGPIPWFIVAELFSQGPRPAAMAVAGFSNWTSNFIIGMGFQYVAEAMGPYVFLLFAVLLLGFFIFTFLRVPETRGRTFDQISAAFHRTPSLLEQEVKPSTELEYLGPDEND
Experiment: Glucose transport assay, GLUT4 expressed in hxt^0 yeast cells SDY.022
Assay type: cell-based
Conditions: for IC50: hxt^0 yeast cells, 5 mM glucose, read-out: IC50 for GLUT4 transport inhibition; for Potency for GLUT4 relative to GLUT3 (higher for GLUT4): IC50 GLUT4 versus IC50 GLUT3
From the text: The most studied GLUTs are Class 1 GLUTs (GLUT1-4) and a Class 2 GLUT, GLUT5 (a fructose-only transporter). GLUT3 sequence homology and identity is 79% and 64%, 71% and 52%, 74% and 57%, and 60% and 38% with GLUT1, GLUT2, GLUT4, and GLUT5, respectively. The hxt^0 yeast cell systems expressing functional GLUT1-4[65],[69] and GLUT5[66] allow us to determine the in vivo transport activity (substrate uptake by a GLUT into whole cells) for individual GLUTs and establish GLUT3 inhibitor selectivity for these transporters. The transport assay was performed as described for GLUT3, but at the substrate concentrations that correspond to the KM for each GLUT (i.e., 5 mM glucose for GLUT1 and GLUT4[65], 15 mM glucose for GLUT2∆loopS_Q455R[63], and 10 mM fructose for GLUT5S72Y[66]).
The transport activity was assayed as the substrate uptake in hexose transporter-deficient yeast cells expressing functional GLUT1[65], GLUT2[69], GLUT4[65], or GLUT5[66]. Substrate final concentration in the assay matched the corresponding substrate KM and was 5 mM glucose for GLUT1 and GLUT4, 15 mM glucose for GLUT2∆loopS_Q455R, and 10 mM fructose for GLUT5S72Y. Transport assay was initiated by the addition of C^14-labeled substrate and stopped after 10 min (see “Materials and methods” for details). […] Standard deviations for experimental points come from at least three independent measurements.
The plasmids containing functional constructs of GLUT1-5 were transformed in the corresponding hxt^0 strains[65],[66],[73] (EBY.VW4000 for GLUT5S72Y, EBY.S7 for GLUT1, GLUT2∆loopS_Q455R, GLUT3 and GLUT3S66Y, and SDY.022 for GLUT4) and grown on 2% (w/v) agar plates of the respective media supplemented with 1% (w/v) maltose. An initial culture of ~ 10 ml was started with a few colonies and grown for 2–3 days if the media was SC-uracil with 1% (w/v) maltose (GLUT1, GLUT3, GLUT4) or 1–2 days if the media was YEP with 1% (w/v) maltose and 100 µg/ml geneticin G418 (GLUT2∆loopS_Q455R and GLUT5S72Y). Cells were washed once in the corresponding media in which maltose was substituted with 0.1–2% hexose substrate for the expressing GLUT (i.e., SC-uracil, 2% (w/v) glucose for GLUT1; SC-uracil, 0.2% (w/v/) glucose for GLUT3 and GLUT4; YEP, 0.2% (w/v) glucose, 100 µg/ml geneticin G418 for GLUT2∆loopS_Q455R, and YEP, 2% (w/v) fructose for GLUT5 S72Y). Then, cells were transferred in the same media so that OD600nm ~ 0.5 and grown further for 1–2 days.
For transport activity assay, cells in the hexose media were centrifuged (1000×g, 5 min, room temperature), washed once with PBS buffer (10 mM Na2HPO4, 1.8 mM KH2PO4, 2.7 mM KCl, 137 mM NaCl, pH 7.4), and resuspended in PBS buffer at an OD600nm ~ 10; each assay contained 100 µl of this cell solution. Transport activity assay was started by adding C^14-hexose at a substrate concentration corresponding to the respective KM (5 mM glucose for GLUT1 or GLUT4, 3 mM glucose for GLUT3 or 1.5 mM glucose for GLUT3S66Y, 15 mM glucose for GLUT2∆loopS_Q455R, and 10 mM fructose for GLUT5S72Y); for determining the glucose KM in GLUT3 and GLUT3S66Y, substrate concentrations were varied accordingly. […] The filtration membranes were transferred into scintillation vials with 10 ml of Scintillation Solution (BioSafeII; Research Products International, Mount Prospect, IL, USA), and vortexed briefly. The radioactivity was determined with a scintillation counter (Tri-carb 2900TR, Perkin Elmer, USA).

| SMILES | IC50 | Ki (2.5, 5 and 10 mM glucose, 0, 4 and 8 µM G3iD, read-out: Ki for GLUT4 inhibition (Dixon plot)) | Inhibition mode in GLUT4 (Dixon plot, versus glucose) | Potency for GLUT4 relative to GLUT3 (higher for GLUT4) |
| --- | --- | --- | --- | --- |
| COc1ccccc1-n1c(/C=C/c2ccc(O)cc2)nc2ccc(Br)cc2c1=O [G3iB, 6-bromo-2-[(E)-2-(4-hydroxyphenyl)ethenyl]-3-(2-methoxyphenyl)quinazolin-4(3H)-one] | 12.7 ± 2.3 µM | – | – | – |
| Cc1cc(NC(=O)CCC2Cc3ccccc3NC2=O)nc(-c2ccccc2)n1 (stereo not shown) [G3iD] | 3.88 ± 0.57 µM | 2650 nM and ~2700 nM | competitive with glucose; also recorded: competitive inhibitor; also recorded: competitive inhibition mode | ~ fivefold |
| O=C(Nc1cccc(Cl)c1)c1cccc(NC(=O)c2cccc([N+](=O)[O-])c2)c1 [G3iE, N-{3-[(3-chloroanilino)carbonyl]phenyl}-3-nitrobenzamide] | 12.4 ± 2.5 µM | – | – | – |
| Cc1ccccc1CN(Cc1nnc(C(C)(C)C)o1)c1ccc2nc(O)[nH]c2c1 [G3iF] | 6.94 ± 1.37 µM | – | – | ~ fivefold |
| Cc1cccnc1OC1CCN(c2cc(N3CCCC3CO)ncn2)CC1 (stereo not shown) [G3iC] | 25.6 ± 6.6 µM | – | – | – |
| CC(=O)Nc1ccc(S(=O)(=O)Nc2ccc(Nc3cc(N(C)C)nc(C)n3)cc2)cc1 [G3iA, N-(4-{[(4-{[6-(dimethylamino)-2-methylpyrimidin-4-yl]amino}phenyl)amino]sulfonyl}phenyl)acetamide] | > 50 µM | – | – | – |
